Reference: US11970461B1, “1-hexyl-5-(4-methoxyphenyl)-2,4-diphenyl-1H-imidazole as an antimicrobial compound” (KING FAISAL UNIVERSITY, priority 2023, dated 2024)

What was measured:
[1] = tested on: Staphylococcus aureus; assay: antimicrobial testing by agar dilution, Staphylococcus aureus; type: cell-based; conditions: after 10, 20, 40 and 60 minutes at all dilutions 1:100, 1:200, 1:400, 1:800
Method: (§1) The antimicrobial properties of the 1-hexyl-5-(4-methoxyphenyl)-2,4-diphenyl-1H-imidazole was studied by the method of agar dilution. Test solutions of each compound was prepared in concentration of 1% using dimethylformamide as a solvent then they are diluted in physiological solution to obtain the final experimental dilutions 1:100, 1:200, 1:400, 1:800. The effect of these substances are compared with furacillin in a controllable study. The testing microbes used were gram positive bacteria Staphylococcus aureus, gram negative bacteria Escherichia coli, Pseudomonas aeruginosa and Candida albicans fungi were taken. The experiments used for this survey were meat-pentonlu agar (EPA) for cultivation of bacteria and Saburo environment for fungi. Each experiment used 1 ml of test solution on each plate 500 min. Add 2 drops of emulsified with microbes feel. All experimental samples were taken from the agar after 10, 20, 40, 60 minutes in the environment on the basis of Patrk planted. Bacteria were cultivated at a temperature of 37° C. for 1 day and the mushroom was kept in a thermostat for […] at a temperature of 28° C. Then the results were checked.

[2] = tested on: Escherichia coli; assay: antimicrobial testing by agar dilution, Escherichia coli; type: cell-based; conditions: after 10, 20, 40 and 60 minutes at all dilutions 1:100, 1:200, 1:400, 1:800
Method: as §1

[3] = tested on: Pseudomonas aeruginosa; assay: antimicrobial testing by agar dilution, Pseudomonas aeruginosa; type: cell-based; conditions: after 10, 20, 40 and 60 minutes at all dilutions 1:100, 1:200, 1:400, 1:800
Method: as §1

[4] = tested on: Candida albicans; assay: antimicrobial testing by agar dilution, Candida albicans; type: cell-based; conditions: after 10, 20, 40 and 60 minutes at all dilutions 1:100, 1:200, 1:400, 1:800
Method: as §1

- melting point: 161 to 162 °C
SMILES: CCCCCCn1c(-c2ccccc2)nc(-c2ccccc2)c1-c1ccc(OC)cc1 [1-hexyl-5-(4-methoxyphenyl)-2,4-diphenyl-1H-imidazole]
- inhibition activity, Staphylococcus aureus [1]: higher inhibition activity
- inhibition activity, Escherichia coli [2]: higher inhibition activity
- inhibition activity, Pseudomonas aeruginosa [3]: higher inhibition activity
- inhibition activity, Candida albicans [4]: higher inhibition activity
